Data taken from US5721356A, “Orally active adenosine kinase inhibitors” (Gensia, Inc., priority 1995, dated 1998).
Counter-ions that a name gives are not always drawn. Like-named read-outs stand apart in the source and are kept apart here.

Experiments:
[1] = Oral bioavailability in dogs (oral vs intravenous AUC); assay type: in vivo, dog (female beagles); settings: dog, plasma, 10 mg/kg, read-out: % Oral Availability
Experimental: Oral bioavailability was determined by comparing the dose corrected areas under the plasma-concentration time curve (AUC) to infinity for the each tested compound, given orally and intravenously in dogs. […] One dog received this solution at an infusion rate of 0.1 mL/min for 20 minutes. The other dog received a 0.2 mL/in infusion for 10 minutes. […] The plasma was separated within 10 minutes of blood collection and was stored frozen. The plasma concentration of compound was then determined for these IV infusions. […] The plasma concentration of compound was determined for this oral administration. The samples were assayed for intact adenosine kinase inhibitor by high performance liquid chromatography (HPLC). An internal standard was added to each test sample and standard sample. Each was then extracted with 10 volumes of 1% v/v dimethylsulfoxide in acetonitrile. […] The dried residue was reconstituted in mobile phase and the contents were analyzed for the adenosine kinase inhibitor (AKI) on HPLC. […] Pharmacokinetic parameters were calculated from the plasma concentration vs. time data, using standard non-compartmental methods. […] et al., Pharmacokinetics., 2[…]. (1983).

female SA rats = assay: Liver toxicity (serum liver enzymes and total bilirubin); assay type: in vivo, rat; settings: iv infusion 2 x 37.5 μmole/kg, 12 hours after second dose
Experimental: Female SA rats (150-200 g) were anesthetized with halothane and cannulated via the internal jugular vein. The animals wee allowed to recover for 3 days. […] Twelve hours later, an additional 37.5 μmole/kg was infused over 20 minutes (total dose=75 μmole/kg). […] Liver enzymes (serum glutamic-oxaloacetic transaminase (SGOT), serum glutamic-pyruvic transaminase (SGPT), alkaline phosphatase) and total bilirubin in the serum samples were dermined by a commercial laboratory.

male SA rats = assay: Anticonvulsant activity, maximal electroshock (MES) model, suppression of hind limb tonic extension; assay type: in vivo; settings: Rattus norvegicus, 1 h
[2] = target: T1, partially purified pig heart adenosine kinase (Sus scrofa, UniProt A0A5G2R0F5); assay: Adenosine kinase (AK) inhibition; assay type: biochemical
T1 construct: partially purified pig heart adenosine kinase; from tissue; host or cells: pig heart
T1 sequence (A0A5G2R0F5 1-362): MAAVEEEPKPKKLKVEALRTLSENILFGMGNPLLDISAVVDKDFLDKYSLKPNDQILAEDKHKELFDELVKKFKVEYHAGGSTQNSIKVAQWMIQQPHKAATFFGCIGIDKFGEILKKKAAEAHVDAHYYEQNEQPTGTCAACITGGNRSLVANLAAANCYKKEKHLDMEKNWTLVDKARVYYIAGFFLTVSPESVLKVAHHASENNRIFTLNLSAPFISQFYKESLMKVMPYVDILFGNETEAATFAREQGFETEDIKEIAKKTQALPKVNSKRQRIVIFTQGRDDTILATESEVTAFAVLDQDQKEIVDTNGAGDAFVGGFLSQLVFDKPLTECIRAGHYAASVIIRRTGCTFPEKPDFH
Experimental: Adenosine kinase activity was measured essentially as described by Yamada et al. Biochim. Biophys. Acta 660, 36-43 […] with a few minor modifications. Assay mixtures contained 50 mM TRIS-maleate buffer, pH 7.0, 0.1% BSA, 1 mM ATP 1 mM MgCl2, 0.5 μM [U-^14 C]adenosine (400-600 mCi/mmol) and varying duplicate concentrations of inhibitor. The reactions were initiated by addition of approximately 0.1 μU partially purified pig heart adenosine kinase, where one unit is defined as that amount of enzyme required to phosphorylate 1 μmol adenosine per minute. The reactions were incubated for 20 minutes at 37° C. The assay was quenched upon spotting 30 μL aliquots onto 2 cm^2 pieces of Whatman DE81 anion exchange paper. The paper squares were washed for 3 minutes in 6 L distilled/deionized water to remove the unreacted adenosine. […] The amount of ^14 C-AMP was quantified by scintillation counting.

[3] = test system: carrageenan-induced paw swelling in rats; assay: Anti-inflammatory activity, carrageenan paw swelling; assay type: in vivo, rat; settings: po, 10 mg/kg, paw swelling 3 hours after carrageenan, vs vehicle
Experimental: Carrageenan (Type λ) was suspended in sterile PBS at 1% (w/v), autoclaved for 30 minutes, and stored at room temperature. Rats were pretreated with vehicle or AK inhibitor (10 mg/kg) by oral gavage or i.p. administration and the volume of the left hind paw was measured using a water displacement plethysmometer (Stoelting Co., Wood Dale, Ill.). One hour after oral treatment or 30 minutes after i.p. treatment, the rats were briefly anesthetized, and 0.1 ml of the carrageenan solution was injected subcutaneously into the planar surface of the left hind paw. The ensuing paw swelling was measured by plethysmometry after 3 hours. The paw volume in millileters was subtracted from the pre-injection paw volume. Data are presented as the percent inhibition of paw swelling in AK inhibitor treated animals, compared to vehicle treated control animals.

[4] = ip, one hour before seizure testing, >5 or <5 = fewer or more than 50% inhibited in initial screen at 5 mg/kg ip, read-out: Anticonvulsant ED50 (MES), ip
[5] = ip, one hour before seizure testing, >5 or <5 = fewer or more than 50% inhibited in initial screen at 5 mg/kg ip
[6] = po, fasted, one hour before seizure testing, read-out: Anticonvulsant ED50 (MES), po

SMILES | IC50 [2] | ED50 at 5 mg/kg (male SA rats; [5]) | ED50 (male SA rats; [6]) | further results
COc1ccc(-c2cn([C@@H]3O[C@H](C)[C@@H](O)[C@H]3O)c3ncnc(Nc4ccc(C#N)cc4)c23)cc1 [#27, 4-N-(4-cyanophenyl)amino-5-(4-methoxyphenyl)-7-(5-deoxy-1-β-D-ribofuranosyl)pyrrolo[2,3-d]pyrimidine] |  |  |  | bioavailability [1]: 100%
C[C@H]1O[C@@H](n2cc(I)c3c(N)ncnc32)[C@H](O)[C@@H]1O [REF. A] |  |  |  | SGPT (female SA rats): 76 IU/L; Total Bilirubin (female SA rats): 0.76 mg/dL
NC[C@H]1O[C@@H](n2nc(Br)c3c(N)ncnc32)[C@H](O)[C@@H]1O [REF. B, 4amino-1-(5-amino-5-deoxy-1-D-ribofuranosyl)-3-bromopyrazolo[3,4d]pyrimidne HCL] |  |  |  | SGOT (female SA rats): 100 IU/L; SGPT (female SA rats): 41 IU/L; Total Bilirubin (female SA rats): 0.30 mg/dL
C[C@H]1O[C@@H](n2cc(-c3ccccc3)c3c(Nc4cc(F)cc(F)c4)ncnc32)[C@H](O)[C@@H]1O [compound 10] | 1 nM |  |  | ED50 (male SA rats; [4]): 5 mg/kg
C[C@H]1O[C@@H](n2cc(-c3ccccc3)c3c(Nc4ccc(F)c(F)c4)ncnc32)[C@H](O)[C@@H]1O [compound 11] | 4 nM | 5 mg/kg |  | 
COc1ccc(Nc2ncnc3c2c(-c2ccccc2)cn3[C@@H]2O[C@H](C)[C@@H](O)[C@H]2O)cc1 [compound 13] | 6 nM |  | > 10 mg/kg | ED50 (male SA rats; [4]): 2 mg/kg
C[C@H]1O[C@@H](n2cc(-c3cccc(Cl)c3)c3c(Nc4ccccc4)ncnc32)[C@H](O)[C@@H]1O [compound 15] | 16 nM | 2.5 mg/kg |  | ED50 (male SA rats; po, read-out: Anticonvulsant ED50 (MES), po): > 20 mg/kg
Cc1ccc(-c2cn([C@@H]3O[C@H](C)[C@@H](O)[C@H]3O)c3ncnc(Nc4ccccc4)c23)cc1 [compound 16] | 9 nM | 2.3 mg/kg | 8.7 mg/kg | 
C[C@H]1O[C@@H](n2cc(-c3ccccc3)c3c(Nc4cccc(Cl)c4)ncnc32)[C@H](O)[C@@H]1O [compound 17] | 17 nM |  |  | 
Cc1cccc(Nc2ncnc3c2c(-c2ccccc2)cn3[C@@H]2O[C@H](C)[C@@H](O)[C@H]2O)c1 [compound 18] | 4 nM | 3.8 mg/kg | > 40 mg/kg | 
C[C@H]1O[C@@H](n2cc(-c3ccccc3)c3c(Nc4cccc(F)c4)ncnc32)[C@H](O)[C@@H]1O [compound 19] | 2 nM | 0.4 mg/kg | > 30 mg/kg | 
C[C@H]1O[C@@H](n2cc(-c3ccccc3)c3c(Nc4ccc(O)cc4)ncnc32)[C@H](O)[C@@H]1O [compound 20] | 32 nM |  | 40 mg/kg | ED50 (male SA rats; [4]): 5.5 mg/kg
C[C@H]1O[C@@H](n2cc(-c3ccc(F)cc3)c3c(Nc4ccccc4)ncnc32)[C@H](O)[C@@H]1O [compound 24] |  | 2.5 mg/kg | 10 mg/kg | 
COc1ccc(-c2cn([C@@H]3O[C@H](C)[C@@H](O)[C@H]3O)c3ncnc(Nc4ccc(F)cc4)c23)cc1 [compound 25] | 10 nM | 3.1 mg/kg |  | 
CCOc1ccc(Nc2ncnc3c2c(-c2ccccc2)cn3[C@@H]2O[C@H](C)[C@@H](O)[C@H]2O)cc1 [compound 28] | 4 nM | < 5 mg/kg |  | Carrageenan Paw (% inh) [3]: 31.0%
CCc1ccc(Nc2ncnc3c2c(-c2ccccc2)cn3[C@@H]2O[C@H](C)[C@@H](O)[C@H]2O)cc1 [compound 29] | 20 nM | > 5 mg/kg |  | 
C[C@H]1O[C@@H](n2cc(-c3cccc([N+](=O)[O-])c3)c3c(Nc4ccc(F)cc4)ncnc32)[C@H](O)[C@@H]1O [compound 30] | 28 nM | > 5 mg/kg |  | 
COc1ccc(-c2cn([C@@H]3O[C@H](C)[C@@H](O)[C@H]3O)c3ncnc(Nc4ccc(C(N)=O)cc4)c23)cc1 [compound 31] | 2 nM | > 5 mg/kg |  | Carrageenan Paw (% inh) [3]: -5.8%

SMILES | IC50 [2] | ED50 at 5 mg/kg (male SA rats; [5]) | ED50 (male SA rats; [6]) | further results
CC(=O)Nc1ccc(Nc2ncnc3c2c(-c2ccccc2)cn3[C@@H]2O[C@H](C)[C@@H](O)[C@H]2O)cc1 [compound 32] | 0.5 nM | 5 mg/kg | > 5 mg/kg | 
C[C@H]1O[C@@H](n2cc(-c3ccccc3)c3c(Nc4ccc(S(N)(=O)=O)cc4)ncnc32)[C@H](O)[C@@H]1O [compound 34] | 5 nM | 5 mg/kg |  | Carrageenan Paw (% inh) [3]: -0.2%
C[C@H]1O[C@@H](n2cc(-c3ccccc3)c3c(NCc4ccccc4)ncnc32)[C@H](O)[C@@H]1O [compound 38] | 30 nM |  |  | ED50 (male SA rats; [4]): > 5 mg/kg
CSc1ccc(Nc2ncnc3c2c(-c2ccccc2)cn3[C@@H]2O[C@H](C)[C@@H](O)[C@H]2O)cc1 [compound 40] | 2 nM | 5 mg/kg | > 10 mg/kg | 
C[C@H]1O[C@@H](n2c(Br)c(-c3ccccc3)c3c(Nc4ccc(F)cc4)ncnc32)[C@H](O)[C@@H]1O [compound 41] | 42 nM | > 5 mg/kg |  | 
C[C@H]1O[C@@H](n2cc(-c3ccccc3)c3c(Nc4ccc(N)cc4)ncnc32)[C@H](O)[C@@H]1O [compound 43] | 3 nM | < 5 mg/kg |  | 
C[C@H]1O[C@@H](n2nc(-c3ccccc3)c3c(Nc4ccccc4)ncnc32)[C@H](O)[C@@H]1O [compound 86] | 4.5 nM | 12.3 mg/kg | > 20 mg/kg | 
[N-]=[N+]=NC[C@H]1O[C@@H](n2nc(-c3ccccc3)c3c(Nc4ccccc4)ncnc32)[C@H](O)[C@@H]1O [compound 87] | 4.5 nM | 2.31 mg/kg | > 2.3 mg/kg | 
OC[C@H]1O[C@@H](n2nc(-c3ccccc3)c3c(Nc4ccccc4)ncnc32)[C@H](O)[C@@H]1O [compound 88] | 5 nM |  | > 2.6 mg/kg | ED50 (male SA rats; [4]): 2.62 mg/kg
COc1ccc(Nc2ncnc3c2c(-c2ccccc2)nn3[C@@H]2O[C@H](C)[C@@H](O)[C@H]2O)cc1 [compound 89] | 17 nM | 5 mg/kg |  | 
COc1ccc(Nc2ncnc3c2c(-c2ccccc2)nn3[C@@H]2O[C@H](CN=[N+]=[N-])[C@@H](O)[C@H]2O)cc1 [compound 90] | 8 nM | > 3.4 mg/kg |  | 
C[C@H]1O[C@@H](n2nc(-c3ccccc3)c3c(Nc4ccc(Cl)cc4)ncnc32)[C@H](O)[C@@H]1O [compound 91] |  |  |  | IC50 ([2]; read-out: AK Inhibition (IC50), 0.5 μM [U-14C]adenosine, pH 7.0, 37° C., 20 minutes): 11 nM
[N-]=[N+]=NC[C@H]1O[C@@H](n2nc(-c3ccccc3)c3c(Nc4ccc(Cl)cc4)ncnc32)[C@H](O)[C@@H]1O [compound 92] | 17 nM |  |  | 
Cc1ccc(-c2nn([C@@H]3O[C@H](CN=[N+]=[N-])[C@@H](O)[C@H]3O)c3ncnc(Nc4ccccc4)c23)cc1 [compound 93] | 20 nM | > 5 mg/kg |  | 
COc1ccc(-c2nn([C@@H]3O[C@H](CN=[N+]=[N-])[C@@H](O)[C@H]3O)c3ncnc(Nc4ccccc4)c23)cc1 [compound 94] | 3 nM | > 5 mg/kg |  | 
COc1ccc(-c2nn([C@@H]3O[C@H](CN=[N+]=[N-])[C@@H](O)[C@H]3O)c3ncnc(Nc4ccc(C)cc4)c23)cc1 [compound 95] |  | > 5 mg/kg |  | 
[N-]=[N+]=NC[C@H]1O[C@@H](n2nc(-c3ccc(Cl)cc3)c3c(Nc4ccccc4)ncnc32)[C@H](O)[C@@H]1O [compound 96] | 15 nM | > 5 mg/kg |  | 
[N-]=[N+]=NC[C@H]1O[C@@H](n2nc(-c3cccs3)c3c(Nc4ccccc4)ncnc32)[C@H](O)[C@@H]1O [compound 97] |  |  |  | ED50 (male SA rats; [4]): > 5 mg/kg; IC50 ([2]; 0.5 μM [U-14C]adenosine, pH 7.0, 37° C., 20 minutes, read-out: AK Inhibition (IC50)): 10 nM
